The text below walks through data of patent US8580918B2, “Peptidic GLP-2 agonists” (Ferring B.V., priority 2009, dated 2013).

The conditions of data set [1]: in humans; cited from earlier work.
The nature of data set [2]: Pharmacokinetics in rats after intravenous bolus injection (systemic clearance). The class given is in vivo. Conditions: rat, plasma, adult male Sprague-Dawley rats, i.v. bolus, read-out: CL (ml/kg/min) Average. In a few lines:
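Systemic clearance from noncompartmental analysis as dose per kg over trapezoidal AUC extrapolated to infinity, mean and SD across animals. Plasma (K2EDTA) levels by LC/MS/MS after single IV jugular-vein bolus, 0.1-1.0 mg/kg, in 3-4 cannulated male Sprague-Dawley rats.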

Read-outs that look alike come from different tables or passages of the source. Where a SMILES comes first, the peptide text is derived from it. [ ]: non-standard residue; d: D form. Nle = CCCC[C@H](N)C(=O)O

For the compound `CC[C@H](C)[C@H](NC(=O)[C@H](Cc1ccccc1)NC(=O)[C@H](CC(=O)O)NC(=O)[C@H](CCCN=C(N)N)NC(=O)[C@H](C)NC(=O)[C@H](C)NC(=O)[C@H](CC(C)C)NC(=O)[C@H](CC(N)=O)NC(=O)[C@H](CC(=O)O)NC(=O)[C@H](CC(C)C)NC(=O)[C@@H](NC(=O)[C@@H](NC(=O)[C@H](CC(N)=O)NC(=O)[C@H](CCSC)NC(=O)[C@H](CCC(=O)O)NC(=O)[C@H](CC(=O)O)NC(=O)[C@H](CO)NC(=O)[C@H](Cc1ccccc1)NC(=O)[C@H](CO)NC(=O)CNC(=O)[C@H](CC(=O)O)NC(=O)[C@H](C)NC(=O)[C@@H](N)Cc1cnc[nH]1)[C@@H](C)O)[C@@H](C)CC)C(=O)N[C@@H](CC(N)=O)C(=O)N[C@@H](Cc1c[nH]c2ccccc12)C(=O)N[C@@H](CC(C)C)C(=O)N[C@H](C(=O)N[C@@H](CCC(N)=O)C(=O)N[C@H](C(=O)N[C@@H](CCCCN)C(=O)N[C@H](C(=O)N[C@H](C(=O)N[C@@H](CC(=O)O)C(=O)O)[C@@H](C)O)[C@@H](C)CC)[C@@H](C)O)[C@@H](C)CC` [hGLP-2, reference compound], the “half-life (t1/2)” value in data set [1] is 10 min. In data set [2] (dose 1.0 mg FB/kg), the clearance is 24.6 mL/kg/min. Regarding `CCCC[C@H](NC(=O)[C@H](CCC(=O)O)NC(=O)[C@H](CC(=O)O)NC(=O)[C@H](CO)NC(=O)[C@H](Cc1ccccc1)NC(=O)[C@H](CO)NC(=O)CNC(=O)[C@H](CC(=O)O)NC(=O)CNC(=O)[C@@H](N)Cc1c[nH]cn1)C(=O)N[C@@H](CC(N)=O)C(=O)N[C@H](C(=O)N[C@H](C(=O)N[C@@H](CC(C)C)C(=O)N[C@@H](CC(=O)O)C(=O)N[C@@H](Cc1ccc(O)cc1)C(=O)N[C@@H](CC(C)C)C(=O)N[C@@H](C)C(=O)N[C@@H](C)C(=O)N[C@@H](CCCNC(=N)N)C(=O)N[C@@H](CC(=O)O)C(=O)N[C@@H](Cc1ccccc1)C(=O)N[C@H](C(=O)N[C@@H](CC(N)=O)C(=O)N[C@@H](Cc1c[nH]c2ccccc12)C(=O)N[C@@H](CC(C)C)C(=O)N[C@H](C(=O)N[C@@H](CCC(N)=O)C(=O)N[C@H](C(=O)N[C@@H](CCCCN)C(N)=O)[C@@H](C)O)[C@@H](C)CC)[C@@H](C)CC)[C@@H](C)CC)[C@@H](C)O` [Compound 18, [Gly2,Nle10,Tyr16] hGLP-2 (1-30)-NH2] (H-HGDGSFSDE[Nle]NTILDYLAARDFINWLIQTK-NH2), the clearance in data set [2] (0.2 mg FB/kg, dose 0.20 mg FB/kg) was 1.2 mL/kg/min.
